Test results from patent publication US11534412B2, “Application of totarol and pharmaceutical composition containing totarol” (Emergopharm SP. Z O.O. SP.K., priority 2017, dated 2022).

Test system: Enterococcus faecalis - clinical strain
Test: Determination of the MIC value of totarol, broth dilution in 96-well plates with OD and quantitative culture
Type: cell-based
Details: for OD, average of 3 measurements: 620 nm
Protocol: Test of antibacterial activity of totarol using DMI (dimethylisosorbide) as a solvent.
1 ml of the suspension was collected to 9 ml of a TSB broth ([…]). Suspensions with a dilution of 10^−6 were prepared in the described way. A suspension with a cell density of 10^5 cfu/ml was selected for further investigations. For each strain, 2 96-well plates were prepared: the first one was intended for the OD measurement, the second one—for quantitative culture on solid media. • A/ to wells B1-D1, B2-D2 and B-D 4-11, 100 µl of the broth were added; • B/ to wells B3-D3, 200 µl of the broth were added; • C/ to wells B1-D1, 1 µl of stock I was added; • D/ to wells B2-D2, 1 µl of stock II was added; • E/ to wells B3-D3, 2 µl of stock III were added. Using a multichannel pipette, 100 µl of the sample were collected from each of the B3-D3 wells and placed in wells B4-D4 (mixing by sucking the content in and letting it out for 5 times). The pipette tips were replaced and 100 µl of the content were collected from of the B4-D4 wells, and placed in wells B5-D5, mixing as previously. These operations were repeated through the wells B11-D11. The content in the B11-D11 wells was mixed, and 100 µl of the fluid were collected and discarded. This way, a series of dilutions of totarol samples in DMI in the range of 0.32% to 0.0004% was obtained. Then, 100 µl of a corresponding bacterial culture were added to the wells B, C, D 1-11. In consequence, a change in the final concentration range occurred, to 0.16%-0.0002%. Control Preparation: • Negative control: 100 µl of the broth+1 pl DMI were added to the Al well. • Positive control (I): 100 µl of the broth with the bacterial culture were added to the wells E1-G1. • Diluent positive control (II): 100 µl of the broth with the bacterial culture+1 pl DMI were added to the wells E2-G2. The OD value in the individual wells was read at the wavelength of 620 nm (read time 0). From the second 96-well plate, a culture was inoculated by a quantitative method from every dilution onto a well with a proper solid medium, and incubated for 24 h at 37° C. under aerobic or anaerobic conditions, depending on the strain. The plates were incubated under aerobic conditions or in an atmosphere of an elevated CO2 concentration (for the strains requiring it) in an incubator at 37° C. The OD was read after 8 h, 16 h, and 24 h, respectively. Before every OD measurement, the contents of the wells were mixed delicately. In parallel to the OD readout, cultures we inoculated from the second 96-well plate, from every dilution, into plates with a proper solid medium, and incubated for 24 h at 37° C., under aerobic or anaerobic conditions. For the analysis of the experimental results, an average value of the OD measurement obtained from three repetitions in the individual times (0, 8, 16, and 24 h) for the individual microbes (Gardnerella vaginalis, Streptococcus agalactiae, Enterococcus faecalis, Lactobacillus gasseri/plantarum) was taken. Additionally, the number of bacteria grown on solid media was taken into account. The results of the tests confirm the specific, concentration-dependent selectiveness, and the high antibacterial effectiveness of totarol against the pathogenic microorganisms: Gardnerella vaginalis, Streptococcus agalactiae, Enterococcus faecalis at low MIC values safe for bacteria of the Lactobacillus genus.

Question: `CC(C)c1c(O)ccc2c1CC[C@H]1C(C)(C)CCC[C@]21C` [Totarol, totarol] was tested. Which MIC value (E. faecalis) did it give?
Answer: 0.0025%

Question: And the Inoculation cfu/ml (totarol 0.0002%, 0 h)?
Answer: 4 × 10^5 cfu/ml

Question: And the “OD, average of 3 measurements” value (totarol 0.0002%, 0 h)?
Answer: 0.292

Question: What about the Inoculation cfu/ml (totarol 0.0002%, 8 h) of the same molecule?
Answer: 4.1 × 10^5 cfu/ml

Question: And the “OD, average of 3 measurements” value (totarol 0.0002%, 8 h)?
Answer: 0.295

Question: And the Inoculation cfu/ml (totarol 0.0002%, 16 h)?
Answer: 2.1 × 10^6 cfu/ml

Question: What about the “OD, average of 3 measurements” value (totarol 0.0002%, 16 h) of the same molecule?
Answer: 0.490

Question: What about the Inoculation cfu/ml (totarol 0.0002%, 24 h) of the same molecule?
Answer: 1.6 × 10^7 cfu/ml

Question: And the “OD, average of 3 measurements” value (totarol 0.0002%, 24 h)?
Answer: 0.681

Question: What about the Inoculation cfu/ml (totarol 0.0004%, 0 h) of the same molecule?
Answer: 3 × 10^5 cfu/ml

Question: What about the “OD, average of 3 measurements” value (totarol 0.0004%, 0 h) of the same molecule?
Answer: 0.298

Question: And the Inoculation cfu/ml (totarol 0.0004%, 8 h)?
Answer: 2.1 × 10^5 cfu/ml

Question: What about the “OD, average of 3 measurements” value (totarol 0.0004%, 8 h) of the same molecule?
Answer: 0.303

Question: And the Inoculation cfu/ml (totarol 0.0004%, 16 h)?
Answer: 1.1 × 10^6 cfu/ml

Question: And the “OD, average of 3 measurements” value (totarol 0.0004%, 16 h)?
Answer: 0.491

Question: And the Inoculation cfu/ml (totarol 0.0004%, 24 h)?
Answer: 1.9 × 10^7 cfu/ml

Question: And the “OD, average of 3 measurements” value (totarol 0.0004%, 24 h)?
Answer: 0.677

Question: What about the Inoculation cfu/ml (totarol 0.0007%, 0 h) of the same molecule?
Answer: 2.5 × 10^5 cfu/ml

Question: And the “OD, average of 3 measurements” value (totarol 0.0007%, 0 h)?
Answer: 0.288

Question: And the Inoculation cfu/ml (totarol 0.0007%, 8 h)?
Answer: 3.1 × 10^5 cfu/ml

Question: What about the “OD, average of 3 measurements” value (totarol 0.0007%, 8 h) of the same molecule?
Answer: 0.291

Question: What about the Inoculation cfu/ml (totarol 0.0007%, 16 h) of the same molecule?
Answer: 3.8 × 10^5 cfu/ml

Question: What about the “OD, average of 3 measurements” value (totarol 0.0007%, 16 h) of the same molecule?
Answer: 0.445

Question: And the Inoculation cfu/ml (totarol 0.0007%, 24 h)?
Answer: 2.1 × 10^7 cfu/ml

Question: What about the “OD, average of 3 measurements” value (totarol 0.0007%, 24 h) of the same molecule?
Answer: 0.602

Question: What about the Inoculation cfu/ml (totarol 0.0013%, 0 h) of the same molecule?
Answer: 4 × 10^5 cfu/ml

Question: What about the “OD, average of 3 measurements” value (totarol 0.0013%, 0 h) of the same molecule?
Answer: 0.293

Question: What about the Inoculation cfu/ml (totarol 0.0013%, 8 h) of the same molecule?
Answer: 6 × 10^4 cfu/ml

Question: What about the “OD, average of 3 measurements” value (totarol 0.0013%, 8 h) of the same molecule?
Answer: 0.297

Question: What about the Inoculation cfu/ml (totarol 0.0013%, 16 h) of the same molecule?
Answer: 6 × 10^4 cfu/ml

Question: What about the “OD, average of 3 measurements” value (totarol 0.0013%, 16 h) of the same molecule?
Answer: 0.399

Question: And the Inoculation cfu/ml (totarol 0.0013%, 24 h)?
Answer: 1 × 10^7 cfu/ml

Question: What about the “OD, average of 3 measurements” value (totarol 0.0013%, 24 h) of the same molecule?
Answer: 0.549

Question: And the Inoculation cfu/ml (totarol 0.0025%, 0 h)?
Answer: 5 × 10^5 cfu/ml

Question: What about the “OD, average of 3 measurements” value (totarol 0.0025%, 0 h) of the same molecule?
Answer: 0.284

Question: And the Inoculation cfu/ml (totarol 0.0025%, 8 h)?
Answer: 0 cfu/ml

Question: And the “OD, average of 3 measurements” value (totarol 0.0025%, 8 h)?
Answer: 0.297

Question: And the Inoculation cfu/ml (totarol 0.0025%, 16 h)?
Answer: 0 cfu/ml

Question: What about the “OD, average of 3 measurements” value (totarol 0.0025%, 16 h) of the same molecule?
Answer: 0.295

Question: And the Inoculation cfu/ml (totarol 0.0025%, 24 h)?
Answer: 0 cfu/ml

Question: And the “OD, average of 3 measurements” value (totarol 0.0025%, 24 h)?
Answer: 0.302

Question: What about the Inoculation cfu/ml (totarol 0.005%, 0 h) of the same molecule?
Answer: 6 × 10^5 cfu/ml

Question: And the “OD, average of 3 measurements” value (totarol 0.005%, 0 h)?
Answer: 0.302

Question: And the Inoculation cfu/ml (totarol 0.005%, 8 h)?
Answer: 0 cfu/ml

Question: What about the “OD, average of 3 measurements” value (totarol 0.005%, 8 h) of the same molecule?
Answer: 0.349

Question: And the Inoculation cfu/ml (totarol 0.005%, 16 h)?
Answer: 0 cfu/ml

Question: And the “OD, average of 3 measurements” value (totarol 0.005%, 16 h)?
Answer: 0.320

Question: And the Inoculation cfu/ml (totarol 0.005%, 24 h)?
Answer: 0 cfu/ml

Question: What about the “OD, average of 3 measurements” value (totarol 0.005%, 24 h) of the same molecule?
Answer: 0.296

Question: What about the Inoculation cfu/ml (totarol 0.01%, 0 h) of the same molecule?
Answer: 4.1 × 10^5 cfu/ml

Question: What about the “OD, average of 3 measurements” value (totarol 0.01%, 0 h) of the same molecule?
Answer: 0.302

Question: What about the Inoculation cfu/ml (totarol 0.01%, 8 h) of the same molecule?
Answer: 0 cfu/ml

Question: And the “OD, average of 3 measurements” value (totarol 0.01%, 8 h)?
Answer: 0.419

Question: What about the Inoculation cfu/ml (totarol 0.01%, 16 h) of the same molecule?
Answer: 0 cfu/ml

Question: And the “OD, average of 3 measurements” value (totarol 0.01%, 16 h)?
Answer: 0.368

Question: What about the Inoculation cfu/ml (totarol 0.01%, 24 h) of the same molecule?
Answer: 0 cfu/ml

Question: What about the “OD, average of 3 measurements” value (totarol 0.01%, 24 h) of the same molecule?
Answer: 0.306

Question: What about the Inoculation cfu/ml (totarol 0.02%, 0 h) of the same molecule?
Answer: 3.1 × 10^5 cfu/ml

Question: And the “OD, average of 3 measurements” value (totarol 0.02%, 0 h)?
Answer: 0.322

Question: What about the Inoculation cfu/ml (totarol 0.02%, 8 h) of the same molecule?
Answer: 0 cfu/ml

Question: And the “OD, average of 3 measurements” value (totarol 0.02%, 8 h)?
Answer: 0.384

Question: And the Inoculation cfu/ml (totarol 0.02%, 16 h)?
Answer: 0 cfu/ml

Question: And the “OD, average of 3 measurements” value (totarol 0.02%, 16 h)?
Answer: 0.374

Question: And the Inoculation cfu/ml (totarol 0.02%, 24 h)?
Answer: 0 cfu/ml

Question: And the “OD, average of 3 measurements” value (totarol 0.02%, 24 h)?
Answer: 0.371

Question: What about the Inoculation cfu/ml (totarol 0.04%, 0 h) of the same molecule?
Answer: 2.6 × 10^5 cfu/ml

Question: What about the “OD, average of 3 measurements” value (totarol 0.04%, 0 h) of the same molecule?
Answer: 0.552

Question: And the Inoculation cfu/ml (totarol 0.04%, 8 h)?
Answer: 0 cfu/ml

Question: What about the “OD, average of 3 measurements” value (totarol 0.04%, 8 h) of the same molecule?
Answer: 0.667

Question: What about the Inoculation cfu/ml (totarol 0.04%, 16 h) of the same molecule?
Answer: 0 cfu/ml

Question: What about the “OD, average of 3 measurements” value (totarol 0.04%, 16 h) of the same molecule?
Answer: 0.555

Question: And the Inoculation cfu/ml (totarol 0.04%, 24 h)?
Answer: 0 cfu/ml

Question: And the “OD, average of 3 measurements” value (totarol 0.04%, 24 h)?
Answer: 0.538

Question: What about the Inoculation cfu/ml (totarol 0.08%, 0 h) of the same molecule?
Answer: 3.2 × 10^5 cfu/ml

Question: And the “OD, average of 3 measurements” value (totarol 0.08%, 0 h)?
Answer: 0.448

Question: And the Inoculation cfu/ml (totarol 0.08%, 8 h)?
Answer: 0 cfu/ml

Question: And the “OD, average of 3 measurements” value (totarol 0.08%, 8 h)?
Answer: 0.539

Question: And the Inoculation cfu/ml (totarol 0.08%, 16 h)?
Answer: 0 cfu/ml

Question: What about the “OD, average of 3 measurements” value (totarol 0.08%, 16 h) of the same molecule?
Answer: 0.499

Question: And the Inoculation cfu/ml (totarol 0.08%, 24 h)?
Answer: 0 cfu/ml

Question: And the “OD, average of 3 measurements” value (totarol 0.08%, 24 h)?
Answer: 0.491

Question: What about the Inoculation cfu/ml (totarol 0.16%, 0 h) of the same molecule?
Answer: 6 × 10^5 cfu/ml

Question: And the “OD, average of 3 measurements” value (totarol 0.16%, 0 h)?
Answer: 0.638

Question: What about the Inoculation cfu/ml (totarol 0.16%, 8 h) of the same molecule?
Answer: 0 cfu/ml

Question: And the “OD, average of 3 measurements” value (totarol 0.16%, 8 h)?
Answer: 0.651

Question: And the Inoculation cfu/ml (totarol 0.16%, 16 h)?
Answer: 0 cfu/ml

Question: What about the “OD, average of 3 measurements” value (totarol 0.16%, 16 h) of the same molecule?
Answer: 0.510

Question: And the Inoculation cfu/ml (totarol 0.16%, 24 h)?
Answer: 0 cfu/ml

Question: What about the “OD, average of 3 measurements” value (totarol 0.16%, 24 h) of the same molecule?
Answer: 0.369
